Test results as given in US20160345553A1, “TRANSGENIC MOUSE MODELS FOR MC4R” (UNIVERSITE DE MONTREAL, priority 2012, published 2016).

Legend:
[1] = tested on: hMC4R (R165W) knock-in mice; assay: In vivo test of DCPMP on knock-in mouse model carrying human mutant form of MC4R (food intake, weight loss); conditions: 30 mg per kg i.p. one dose daily for 9 days
Method: (§1) Mice were intraperitoneally injected one dose daily with vehicle or DCPMP at 30 mg per kg one hour before light off, for 9 days. Data are the average daily food intake (A, B. C), or the mean of the total body weight loss [total body weight before treatment—total body weight after 9 days treatment] (D), for each experimental group, Data are expressed as Mean±SEM. Numbers of animal per genotype are indicated in brackets.
(§2) Mice were intraperitoneally injected one dose daily with vehicle or N-((2R)-3(2,4-dichlorophenyl)-1-(4-(2-((1-methoxypropan-2-ylamino)methyl)phenyl)piperazin-1-yl)-1-oxopropan-2-yl)propionamide (DCPMP) at 30 mg per kg one hour before light off, for 9 days.
(§3) Animals were individually housed for 4 days prior to starting experiments. […] All animals were weighed prior to compound injection, and doses were normalized to individual animal body weight. Mice were intraperitoneally injected one dose daily with vehicle (1% Tween 80) or DCPMP at 30 mg per kg one hour before lights off (at 5:00 PM), for 9 days. Weight was monitored every 3 days during treatment and after stopping treatment. Food intake was measured during the recovery time for 7 days. Data are the average daily food intake or the mean of total body weight loss [total body weight before treatment—total body weight after 9 days treatment].

[2] = tested on: non-transgenic littermate mice; assay: In vivo test of DCPMP in non-transgenic littermate mice (food intake); design: species or system mouse; conditions: at the beginning of DCPMP treatment, 30 mg per kg i.p. daily
Method: as §1, §2, §3

CCC(=O)N[C@H](Cc1ccc(Cl)cc1Cl)C(=O)N1CCN(c2ccccc2CNC(C)COC)CC1 (stereo partly drawn) [DCPMP, N-((2R)-3(2,4-dichlorophenyl)-1-(4-(2-((1-methoxypropan-2-ylamino)methyl)phenyl)piperazin-1-yl)-1-oxopropan-2-yl)propionamide]
food intake ([1]; hMC4R (R165W) male mice): reducing food intake | weight loss, % of total weight ([1]; initially overweight heterozygous hMC4R (R165W) mice): up to 13% | weight loss, % of total weight ([1]; initially overweight homozygous hMC4R (R165W) mice): ≤ 15% | food consumption [2]: slightly reduced
